Experiment: T release study in saline incubation media
Assay type: physicochemical
Conditions: saline incubation media, 2, 4 and 6 hours
Method: In order to compare the release rate results of hydrogel encapsulated T to pelleted T, larger gels had to be prepared as the T pellets which the hydrogels are intended to replace are 25 mg, where the E2 pellets are merely 6 mg. Thus, approximately 83 mg of hydrogel at 30% T loading and 1% HA were prepared. In order to achieve even or consistent crosslinking in these much larger hydrogel samples, Likarda's patented micromolds (shown in FIG. 21) were employed. After formation, the encapsulated T was removed from the molds and placed in tubes to be rotated for an hour. The encapsulated T hydrogels were then removed from the tubes and stored in Dulbecco's PBS buffer. The large hydrogel blocks encapsulating T were then tested and compared to 25 mg T pellets and micronized T powder.
The T powder was produced as a 2.5 mg/mL slurry in buffer to reach the near saturation point of T in the buffer. Samples of the T powder slurry were removed from only the top layer of the slurry fluid to avoid aspirating T particles in the slurry that may have precipitated at to the bottom. T pellets were collected directly from the vials in which they were stored. The 83 mg hydrogels containing 30% T were collected from Dulbecco's PBS buffer, rinsed, and dried. Each of the collected samples was then placed in a separate container of incubation media (saline in this instance) for the release studies. […]

C[C@]12CC[C@H]3[C@@H](CCC4=CC(=O)CC[C@@]43C)[C@@H]1CC[C@@H]2O [T powder, Testosterone]
approximate saturation level of T in saline: about 1.5 mg/L
